Measured values: patent US20260215428A1, “WEED CONTROL METHOD” (SYNGENTA CROP PROTECTION AG, priority 2023, published 2026)

Test system: Lolium multiflorum
Assay: Further glasshouse test versus other ACCase-inhibiting herbicides, Table B2-1
Format: in vivo
Conditions: 21 days after application
Text: Further tests were employed to test the efficacy of a compound of Formula I versus other ACCase-inhibiting herbicides. The five main targets were Lolium multiflorum, Eleusine indica, Digitaria insularis, Sorghum halepense and Echinochloa crus-galli. Collectively, the populations contained all the major target-site resistance mutations affecting ACCase herbicides. Two L. multiflorum (LM-NTSR-1 and LM-NTSR-2) and one E. crus-galli (ECG-NTSR-1) populations were characterised exclusively by non-target-site resistance (“NTSR”). The target-site resistant L. multiflorum and E. indication populations were 100% homozygous for different ACCase mutations whilst the D. insularis, S. halepense and E. crus-galli samples contained a mixture of homozygous wild and mutant individuals at different genotypic frequencies. Additional underlying NTSR cannot be ruled out in the populations characterised by target-site resistance.
Around 50 seeds of each of the 24 weed populations were sown in 12-cm pots containing a mixture of peat and compost in a 1:1 ratio. The pots were watered, fertilised and kept in controlled glasshouse conditions set at 24° C./16 hr day, 18° C. night, 65% relative humidity, and a photon flux density of approximately 250 μmol quanta m^−2 s^−1 for Lolium multiflorum. The E. indica, D. insularis, S. halepense and E. crus-galli plants were kept in a separate glasshouse bay characterised by a 17 H photoperiod of 180 μmol m^−2 s^−1 with temperatures of 25° C. day and 19° C. night and 65% relative humidity. When the plants were at the two to four-leaf stage, they were treated with the various ACCase-inhibiting herbicides at 0, 15, 30, 60, 120 and 240 g ai ha^−1 in a spray cabinet mounted with a single mobile Teejet flat fan nozzle (11002VS) calibrated to deliver 200 L ha^−1 at 200 kPa. The L. multiflorum populations were treated by a compound of Formula Ic, clodinafop-propargyl, pinoxaden, cycloxydim and clethodim and the warm season grass weeds E. indica, D. insularis, S. halepense and E. crus-galli were sprayed with a Compound Ic and the commonly employed haloxyfop-methyl and clethodim. Three replicate pots were used per population. Plants were assessed for visual damage compared to the untreated control 21 days after application (0=0% damage; 100=100% damage).

[1] = population LM-NTSR-1 (non-target-site resistance), 15 g/ha
[2] = population LM-NTSR-1 (non-target-site resistance), 30 g/ha
[3] = population LM-NTSR-1 (non-target-site resistance), 60 g/ha
[4] = population LM-NTSR-1 (non-target-site resistance), 120 g/ha
[5] = population LM-NTSR-1 (non-target-site resistance), 240 g/ha
[6] = population LM-NTSR-2 (non-target-site resistance), 15 g/ha
[7] = population LM-NTSR-2 (non-target-site resistance), 30 g/ha
[8] = population LM-NTSR-2 (non-target-site resistance), 60 g/ha
[9] = population LM-NTSR-2 (non-target-site resistance), 120 g/ha
[10] = population LM-NTSR-2 (non-target-site resistance), 240 g/ha

| Structure (SMILES) | visual damage (biotype C2088R, 15 g/ha) [%] | visual damage (biotype C2088R, 30 g/ha) [%] | visual damage (biotype C2088R, 60 g/ha) [%] | visual damage (biotype C2088R, 120 g/ha) [%] | visual damage (biotype C2088R, 240 g/ha) [%] | visual damage (biotype D2078G, 15 g/ha) [%] | visual damage (biotype D2078G, 30 g/ha) [%] | visual damage (biotype D2078G, 60 g/ha) [%] | visual damage (biotype D2078G, 120 g/ha) [%] | visual damage (biotype D2078G, 240 g/ha) [%] | visual damage (biotype I1781L, 15 g/ha) [%] | visual damage (biotype I1781L, 30 g/ha) [%] | visual damage (biotype I1781L, 60 g/ha) [%] | visual damage (biotype I1781L, 120 g/ha) [%] | visual damage (biotype I1781L, 240 g/ha) [%] | visual damage (biotype Sensitive, 15 g/ha) [%] | visual damage (biotype Sensitive, 30 g/ha) [%] | visual damage (biotype Sensitive, 60 g/ha) [%] | visual damage (biotype Sensitive, 120 g/ha) [%] | visual damage (biotype Sensitive, 240 g/ha) [%] | other results |
| --- | --- | --- | --- | --- | --- | --- | --- | --- | --- | --- | --- | --- | --- | --- | --- | --- | --- | --- | --- | --- | --- |
| C#CCOC(=O)[C@@H](C)Oc1ccc(Oc2ncc(Cl)cc2F)cc1 [Clodinafop-propargyl, clodinafop-propargyl] | 0 | 0 | 0 | 0 | 7 | 0 | 0 | 0 | 0 | 0 | 7 | 7 | 7 | 10 | 33 | 67 | 98 | 100 | 100 | 100 | visual damage (biotype W1999S, 15 g/ha): 0%; visual damage (biotype W1999S, 30 g/ha): 0%; visual damage (biotype W1999S, 60 g/ha): 0%; visual damage (biotype W1999S, 120 g/ha): 0%; visual damage (biotype W1999S, 240 g/ha): 0%; visual damage (biotype W2027C, 15 g/ha): 0%; visual damage (biotype W2027C, 30 g/ha): 0%; visual damage (biotype W2027C, 60 g/ha): 0%; visual damage (biotype W2027C, 120 g/ha): 0%; visual damage (biotype W2027C, 240 g/ha): 0%; visual damage [1]: 0%; visual damage [2]: 0%; visual damage [3]: 0%; visual damage [4]: 27%; visual damage [5]: 52%; visual damage [6]: 0%; visual damage [7]: 0%; visual damage [8]: 0%; visual damage [9]: 0%; visual damage [10]: 0% |
| CCc1cc(C)cc(CC)c1-c1c(OC(=O)C(C)(C)C)n2n(c1=O)CCOCC2 [Pinoxaden, pinoxaden] | 0 | 0 | 0 | 3 | 30 | 3 | 3 | 10 | 45 | 90 | 7 | 7 | 27 | 73 | 98 | 100 | 100 | 100 | 100 | 100 | visual damage (biotype W1999S, 15 g/ha): 0%; visual damage (biotype W1999S, 30 g/ha): 0%; visual damage (biotype W1999S, 60 g/ha): 0%; visual damage (biotype W1999S, 120 g/ha): 7%; visual damage (biotype W1999S, 240 g/ha): 33%; visual damage (biotype W2027C, 15 g/ha): 0%; visual damage (biotype W2027C, 30 g/ha): 10%; visual damage (biotype W2027C, 60 g/ha): 62%; visual damage (biotype W2027C, 120 g/ha): 93%; visual damage (biotype W2027C, 240 g/ha): 100%; visual damage [1]: 30%; visual damage [2]: 85%; visual damage [3]: 97%; visual damage [4]: 100%; visual damage [5]: 100%; visual damage [6]: 0%; visual damage [7]: 0%; visual damage [8]: 0%; visual damage [9]: 65%; visual damage [10]: 53% |
